The text below walks through data of ChEMBL document CHEMBL3997846, “Synthesis and activity of nucleoside-based antiprotozoan compounds” (Bioorg Med Chem, 2017).

For data set [1], the system named is Trypanosoma brucei rhodesiense. Nature of the data set: Antitrypanosomal activity against bloodstream forms of Trypanosoma brucei rhodesiense STIB900 trypomastigotes after 72 hrs by alamar blue assay. The class given is functional. The note with it: STIB900, 72 h.
The test system of another data set is Trypanosoma cruzi. The experiment in a line: Antitrypanosomal activity against Trypanosoma cruzi Tulahuen strain C2C4 amastigote forms harboring LacZ infected in rat L6 cells after 96 hrs by CPRG/Nonidet reagent based photometric method. In kind it is functional, cell-based. The note with it: Tulahuen strain C2C4, L6, 96 h.
Data set [2] in a line: Selectivity index, ratio of IC50 for rat L6 cells to IC50 for Leishmania donovani MHOM/SD/62/ISCL2D axenic amastigotes. The class given is toxicity. Conditions: read-out: Ratio IC50.
A short description of data set [3]: Selectivity index, ratio of IC50 for rat L6 cells to IC50 for Trypanosoma cruzi Tulahuen strain C2C4 amastigote forms harboring LacZ infected in rat L6 cells. The class given is toxicity, cell-based. The note with it: read-out: Ratio IC50.
Data set [4] in a line: Selectivity index, ratio of IC50 for rat L6 cells to IC50 for bloodstream forms of Trypanosoma brucei rhodesiense STIB900 trypomastigotes. In kind it is toxicity. Conditions: read-out: Ratio IC50.
Another data set concerns Leishmania donovani. The experiment in a line: Antileishmanial activity against Leishmania donovani MHOM/SD/62/ISCL2D axenic amastigotes after 72 hrs by alamar blue assay. In kind it is functional. (The colour change of resazurin is a common sign of viable cells or microbes.)

Structures are written as SMILES.

`CNc1nc(I)nc2c1ncn2[C@@H]1O[C@H](CSC)[C@@H](O)[C@H]1O`: the results for the concentration for half-maximal inhibition (IC50) (in data set [1]; in the data set with Trypanosoma cruzi; in the data set on Leishmania donovani) were 21 µM, 104 µM and 101 µM, respectively. The values for the selectivity ratio in data set [2], in data set [3] and in data set [4] were 1, 1 and 6, respectively.

As to `CNc1ncnc2c1ncn2[C@@H]1O[C@H](CSC)[C@@H](O)[C@H]1O`, the 50% inhibitory concentration (IC50) (as a rule, the midpoint of a concentration-inhibition curve) was 16 µM in data set [1], 191 µM with Trypanosoma cruzi and over 320 µM in the data set on Leishmania donovani. The selectivity ratio in data set [2] is under 0.5; in data set [3], 0.8; in data set [4] it was 10.

As for `C[C@H]1O[C@@H](n2cnc3c(N)nc(NN)nc32)[C@H](O)[C@@H]1O`, the values for the IC50 (in data set [1]; in the data set on Trypanosoma cruzi; in the data set with Leishmania donovani) were 132 µM, 147 µM and 73 µM, respectively. Also, the selectivity ratio in data set [2] stood at 3; in data set [3], 1; in data set [4], 1.

As to `CNc1nc(I)nc2c1ncn2[C@@H]1O[C@H](C)[C@@H](O)[C@H]1O`, the figures for the 50% inhibitory concentration (IC50) (in data set [1]; in the data set with Trypanosoma cruzi; with Leishmania donovani) were 49 µM, 126 µM and 199 µM, respectively. Also, the selectivity ratio was 0.7 in data set [2], 1 in data set [3] and 3 in data set [4].

For the compound `CSC[C@H]1O[C@@H](n2cnc3c(N)nc(Cl)nc32)[C@H](O)[C@@H]1O`, the figures for the concentration for half-maximal inhibition (IC50) (in data set [1]; in the data set on Trypanosoma cruzi; in the data set on Leishmania donovani) were 203 µM, over 270 µM and 60 µM, respectively. Also, the selectivity ratio in data set [2] is 5; in data set [3], under 1; in data set [4], 1.

For the compound `CSC[C@H]1O[C@@H](n2cnc3c(/N=C/N(C)C)nc(F)nc32)[C@H](O)[C@@H]1O`, the IC50 in data set [1] is 62 µM; in the data set with Trypanosoma cruzi, 114 µM; with Leishmania donovani, 2.5 µM. Moreover, the selectivity ratio was 0.6 in data set [2], under 0.1 in data set [3] and under 0.1 in data set [4].

On to `C[C@H]1O[C@@H](n2cnc3c(N)nc(N=[N+]=[N-])nc32)[C@H](O)[C@@H]1O`, for which the figures for the IC50 (in data set [1]; in the data set on Trypanosoma cruzi; in the data set with Leishmania donovani) were 137 µM, 167 µM and 125 µM, respectively. Besides, the values for the selectivity ratio in data set [2], in data set [3] and in data set [4] were 2, 1 and 1, respectively.

As to `CNc1nc(F)nc2c1ncn2[C@@H]1O[C@H](C)[C@@H](O)[C@H]1O`, the IC50 is 194 µM in data set [1], 20 µM in the data set with Trypanosoma cruzi and over 353 µM in the data set on Leishmania donovani. Also, the selectivity ratio is 0.7 in data set [2], 12 in data set [3] and 1 in data set [4].

In the case of `CSC[C@H]1O[C@@H](n2cnc3c(N)nc(F)nc32)[C@H](O)[C@@H]1O`, the figures for the 50% inhibitory concentration (IC50) (in data set [1]; in the data set on Trypanosoma cruzi; in the data set on Leishmania donovani) were 4.3 µM, 2.6 µM and 0.8 µM, respectively. Also, the selectivity ratio stood at 0.7 in data set [2], 0.2 in data set [3] and 0.1 in data set [4].

With `C[C@H]1O[C@@H](n2cnc3c(N)nc(C#N)nc32)[C@H](O)[C@@H]1O`, the IC50 worked out at 79 µM in data set [1], 144 µM with Trypanosoma cruzi and 100 µM in the data set with Leishmania donovani. The selectivity ratio in data set [2] came out at 2; in data set [3], 1; in data set [4], 2.

Turning to `CSC[C@H]1O[C@@H](n2cnc3c(N)nc(I)nc32)[C@H](O)[C@@H]1O`, the results for the IC50 (in data set [1]; with Trypanosoma cruzi; with Leishmania donovani) were 5 µM, 88 µM and 132 µM, respectively. Further, the selectivity ratio in data set [2] stood at 1; in data set [3], 2; in data set [4] it was 27.

In the case of `C[C@H]1O[C@@H](n2cnc3c(N)nc(Cl)nc32)[C@H](O)[C@@H]1O`, the values for the IC50 (in data set [1]; in the data set with Trypanosoma cruzi; in the data set with Leishmania donovani) were 84 µM, 189 µM and 49 µM, respectively. In addition, the figures for the selectivity ratio in data set [2], in data set [3] and in data set [4] were 3, 0.8 and 2, respectively.
